One assay has as its target WT STING (Homo sapiens, UniProt Q86WV6, H232R). The assay is described as follows: Differential scanning fluorimetry (DSF) with WT STING. The assay is classed as binding. More on the design: truncated human WT STING or AQ STING (amino acid residues 140-343); 8xHis (N, cleaved yes); SUMO (N, cleaved yes); made in house; host or cells: E. coli Rosetta-gami B (DE3). The following applies: thermal shift, truncated human WT STING 0.1 mg/ml, 150 μM CDN; for ΔTm at 150 µM: read-out: DSF ΔTm WT STING. An excerpt:
(§1) Both WT and AQ human STING (G230A-R^293Q) cDNA were amplified by the use of PCR (Phusion® High-Fidelity DNA Polymerase, cat. # M0530S, NEB, Ipswich, USA) using oligonucleotides hSTING140-BamH-For ([…]) (SEQ ID NO:5) and hSTING379-Not-Rev3 ([…]) (SEQ ID NO:6) from pUNOI-hSTING-WT (cat. # punol-hstingwt, InvivoGen, San Diego, USA) and pUNO1-hSTING-HAQ plasmids (punol-hsting-haq, InvivoGen, San Diego, USA). Purified PCR products were cleaved with restriction enzymes BamHI (cat. # R^0136S, NEB, Ipswich, USA) and NotI (cat. # R^0189S, NEB, Ipswich, USA) and cloned into the pSUMO vector linearized with the identical enzymes. Plasmid pSUMO was created by introducing 8-His-SUMO sequence between NdeI and BamHI sites of pHis-parallel2 plasmid (Clontech, Moutain View, USA). pSUMO-STING WT or pSUMO-STING AQ plasmids thus encoded truncated human WT STING or AQ STING (amino acid residues 140-343) with N-terminal 8×His and SUMO tag.
(§2) The recombinant WT STING and AQ STING proteins were overexpressed in Rosetta-gami B (DE3) competent cells (cat. #71136-3, Merck Millipore, Billerica, USA). Bacterial pellets were re-suspended in ice-cold lysis buffer containing 50 mmol·l^−1 TrisCl (cat. # T1503, Sigma Aldrich, Czech Republic) pH 8.0, 300 mmol·l^−1 NaCl, 3 mmol·l^−1 (3-mercaptoethanol (cat. # M6250, Sigma Aldrich, Czech Republic), 10% glycerol (cat. #G5516, Sigma Aldrich, Czech Republic) and 20 mmol·l^−1 imidazole (cat. #15513, Sigma Aldrich, Czech Republic) using Dounce homogenizer. DNase I (cat. # D5025, Sigma Aldrich, Czech Republic) and RNase A (cat. # R^6513, Sigma Aldrich, Czech Republic) were added (final concentration 50 μg/ml) together with MgCl2 (final concentration 5 mmol·l^−1) to the homogenate and bacteria were lysed using French Press G-M™ High-Pressure Cell Press Homogenizer (1500 psi, 3 cycles). Lysate was spun 30,000 g for 20 minutes and supernatant was gently stirred with Ni-NTA resin (cat. #745400.25 Macherey-Nagel, Duren, Germany) for 30 minutes. The resin was poured into a chromatography column, washed with 50 ml buffer A (50 mmol·l^−1 TrisCl (pH 8.0), 800 mmol·l^−1 NaCl, 3 mmol·l^−1β-mercaptoethanol; 10% glycerol; 20 mmol·l^−1 imidazole) and 8-His-SUMO tagged STING proteins were eluted with 15 ml buffer A containing 300 mmol·l^−1 imidazole. The eluted proteins were cleaved with recombinant SUMO protease (80 pig/ml of protein solution, cat. #12588018, ThermoFisher, Waltham, USA). The proteins were further purified by size exclusion chromatography using HiLoad 16/60 Superdex 75 (cat. #28989333, GE Healthcare Bio-Sciences, Pittsburgh, USA) in 50 mmol·l^−1 Tris C1 buffer pH 7.4 containing 150 mmol·l^−1 NaCl, and 10% glycerol. Proteins were concentrated with Amicon® Ultra-15 10 K device (cat. # UFC901008, Merck Millipore, Billerica, USA) and flash frozen in liquid N2.
(§3) WT and AQ allelic forms of STING protein were diluted to the final concentration 0.1 mg/ml in 100 mmol·l^−1 TrisCl buffer pH 7.4 containing, 150 mmol·l^−1 NaCl, 1:500 SYPRO Orange (cat. # S6650, ThermoFisher, Waltham, USA) and 150 μM CDN or water. 20 μL solutions of the reaction mixtures were pipetted in triplicates into 96 well optical reaction plates and thermal denaturation of samples were performed on real time PCR cycler (LightCycler® 480 Instrument II—Roche, Basel, Switzerland). The first derivative of the thermal denaturation curves was performed to calculate denaturing temperatures of STING-CDN complexes and STING apoproteins. The thermal shift for each CDN was calculated by subtracting the average denaturing temperature of STING apoprotein from the average denaturing temperature of STING CDN complex.

For the next assay, the target named is T1, AQ STING (G230A-R293Q) (Homo sapiens, UniProt Q86WV6, G230A/H232R/R293Q).
T1 construct: truncated human WT STING or AQ STING (amino acid residues 140-343); 8xHis (N, cleaved yes); SUMO (N, cleaved yes); made in house; host or cells: E. coli Rosetta-gami B (DE3)
T1 sequence (Q86WV6 140-343 G230A/H232R/R293Q): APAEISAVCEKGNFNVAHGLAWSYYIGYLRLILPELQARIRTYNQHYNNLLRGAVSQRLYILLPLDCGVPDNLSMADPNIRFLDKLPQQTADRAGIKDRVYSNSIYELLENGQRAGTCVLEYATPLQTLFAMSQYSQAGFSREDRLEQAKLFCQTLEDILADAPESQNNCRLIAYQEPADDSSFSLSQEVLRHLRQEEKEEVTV
The assay is described as follows: Differential scanning fluorimetry (DSF) with AQ STING. Type of assay: binding. The following applies: thermal shift, truncated human AQ STING 0.1 mg/ml, 150 μM CDN; for ΔTm at 150 µM: read-out: DSF ΔTm AQ STING.
Text: as §1, §2, §3

Sequence of WT STING (Q86WV6 140-343 H232R): as the sequence (Q86WV6 140-343 G230A/H232R/R293Q) above, with A91G, Q154R counted along it

For the compound `Nc1ncnc2c1ncn2[C@@H]1O[C@@H]2COP(=O)(O)OC3C(O)[C@@H](COP(=O)(O)OC2C1O)C[C@H]3n1cnc2c(=O)[nH]cnc21` (stereo partly drawn) [Compound 121, (6R,8R,15R,17R)-8-(6-amino-9H-purin-9-yl)-3,9,12,18-tetrahydroxy-17-(6-oxo-6,9-dihydro-1H-purin-9-yl)-2,4,7,11,13-pentaoxa-3λ^5,12λ^5-diphosphatricyclo[13.2.1.0^6,10]octadecane-3,12-dione], the “DSF ΔTm WT STING” value on WT STING worked out at 9.4 °C. Moreover, at AQ STING (G230A-R293Q), the “DSF ΔTm AQ STING” value came to 17.0 °C.
Regarding `Nc1ncnc2c1ccn2[C@@H]1O[C@@H]2COP(=O)(O)OC3C(O)[C@@H](COP(=O)(O)OC2C1O)C[C@H]3n1cnc2c(=O)[nH]cnc21` (stereo partly drawn) [Compound 122, (6R,8R,15R,17R)-8-{4-amino-7H-pyrrolo[2,3-d]pyrimidin-7-yl}-3,9,12,18-tetrahydroxy-17-(6-oxo-6,9-dihydro-1H-purin-9-yl)-2,4,7,11,13-pentaoxa-3λ^5,12λ^5-diphosphatricyclo[13.2.1.0^6,10]octadecane-3,12-dione], the shift in melting temperature (ΔTm) at 150 µM at WT STING came out at 6.7 °C; on AQ STING (G230A-R293Q) it was 14.6 °C.
With `Cc1cn([C@@H]2O[C@@H]3COP(=O)(O)OC4C(O)[C@@H](COP(=O)(O)OC3C2O)C[C@H]4n2cnc3c(=O)[nH]cnc32)c2ncnc(N)c12` (stereo partly drawn) [Compound 123, (6R,8R,15R,17R)-8-{4-amino-5-methyl-7H-pyrrolo[2,3-d]pyrimidin-7-yl}-3,9,12,18-tetrahydroxy-17-(6-oxo-6,9-dihydro-1H-purin-9-yl)-2,4,7,11,13-pentaoxa-3λ^5,12λ^5-diphosphatricyclo[13.2.1.0^6,10]octadecane-3,12-dione], the ΔTm at 150 µM at WT STING stood at 6.3 °C; at AQ STING (G230A-R293Q), 12.1 °C.
For `Nc1ncnc2c1c(I)cn2[C@@H]1O[C@@H]2COP(=O)(O)OC3C(O)[C@@H](COP(=O)(O)OC2C1O)C[C@H]3n1cnc2c(=O)[nH]cnc21` (stereo partly drawn) [Compound 124, (6R,8R,15R,17R)-8-{4-amino-5-iodo-7H-pyrrolo[2,3-d]pyrimidin-7-yl}-3,9,12,18-tetrahydroxy-17-(6-oxo-6,9-dihydro-1H-purin-9-yl)-2,4,7,11,13-pentaoxa-3λ^5,12λ^5-diphosphatricyclo[13.2.1.0^6,10]octadecane-3,12-dione], the shift in melting temperature (ΔTm) at 150 µM on WT STING was determined as 5.6 °C; at AQ STING (G230A-R293Q), 11.3 °C.
The corresponding values for `CSc1ncnc2c1ncn2[C@@H]1O[C@@H]2COP(=O)(O)OC3C(O)[C@@H](COP(=O)(O)OC2C1O)C[C@H]3n1cnc2c(=O)[nH]cnc21` (stereo partly drawn) [Compound 125, (1S,6R,8R,9R,10S,15R,17R,18R)-3,9,12,18-tetrahydroxy-8-[16-(methylsulfanyl)-9H-purin-9-yl]-17-(6-oxo-6,9-dihydro-1H-purin-9-yl)-2,4,7,11,13-pentaoxa-3λ^5,12λ^5-diphosphatricyclo[13.2.1.0^6,10]octadecane-3,12-dione] are 4.2 °C and 11.4 °C.
The corresponding values for `Nc1ncnc2c1ncn2[C@@H]1O[C@@H]2COP(=O)(O)O[C@@H]3[C@@H](F)[C@@H](COP(=O)(O)O[C@H]2[C@H]1O)C[C@H]3n1cnc2c(=O)[nH]cnc21` [Compound 126, (1S,6R,8R,9R,10S,15R,17R,18S)-8-(6-amino-9H-purin-9-yl)-18-fluoro-3,9,12-trihydroxy-17-(6-oxo-6,9-dihydro-1H-purin-9-yl)-2,4,7,11,13-pentaoxa-3λ^5,12λ^5-diphosphatricyclo[13.2.1.0^6,10]octadecane-3,12-dione] are 8.4 °C and 15.8 °C.
`Nc1ncnc2c1ncn2[C@@H]1O[C@@H]2COP(=O)(O)O[C@@H]3[C@H](F)[C@@H](COP(=O)(O)O[C@H]2[C@H]1F)C[C@H]3n1cnc2c(=O)[nH]cnc21` [Compound 127]: the figures for the ΔTm at 150 µM on WT STING and on AQ STING (G230A-R293Q) were 8.2 °C and 16.8 °C, respectively.

Values taken from patent US20190359645A1, “2'3'-CYCLIC DINUCLEOTIDES COMPRISING CARBOCYCLIC NUCLEOTIDE” (Institute of Organic Chemistry and Biochemistry ASCR, V.V.I., priority 2018, published 2019).
